Target: T1, renin (Homo sapiens, UniProt P00797)
T1 sequence (P00797 67-406): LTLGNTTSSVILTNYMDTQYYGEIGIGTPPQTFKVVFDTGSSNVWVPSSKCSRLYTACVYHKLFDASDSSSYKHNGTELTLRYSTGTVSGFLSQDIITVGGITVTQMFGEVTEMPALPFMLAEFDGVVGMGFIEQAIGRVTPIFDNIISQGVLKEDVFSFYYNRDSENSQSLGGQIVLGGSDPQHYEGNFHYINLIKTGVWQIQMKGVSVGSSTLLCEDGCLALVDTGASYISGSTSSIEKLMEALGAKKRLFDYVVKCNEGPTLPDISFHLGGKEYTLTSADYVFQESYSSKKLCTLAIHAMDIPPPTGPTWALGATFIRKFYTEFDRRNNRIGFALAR
Assay: in vitro renin inhibition, radioimmunoassay for angiotensin I
Format: biochemical
Conditions: incubated for two hours at 37° in the presence of angiotensinogen, read-out: IC50 (molar concentration of test compound causing a 50% inhibition of the renin activity)
Protocol: The compounds of the present invention are valuable because of their ability to inhibit renin in an in vitro assay. Activity is determined by a standard radioimmunoassay for angiotensin I. In the assay, the enzyme renin, incubated for two hours at 37° in the presence of a substrate, angiotensinogen, generates the product angiotensin I. Test compounds are added to the incubation mixture. Relative activity is reported as the IC50, which is the molar concentration of test compound causing a 50% inhibition of the renin activity.
The in vitro test employed is more fully described in "Methods in Enzymatic Analysis", Bergmeyer, J., and Grass, N., eds., 3rd edition Weinheim: Verlag Chemie, pp. 251-258 (1984).

Compound | IC50
CC(C)C[C@H](NC(=O)[C@H](Cc1c[nH]cn1)NC(=O)[C@H](Cc1ccccc1)NC(=O)OC(C)(C)C)C(O)C(=O)OC(C)C (some centres unmarked) [Example 1] | 1000 nM
CC(C)C[C@H](NC(=O)[C@H](Cc1c[nH]cn1)NC(=O)C(Cc1cccc2ccccc12)Cc1cccc2ccccc12)[C@@H](O)C(=O)OC(C)C [Example 1b, [2R-[2R*,3S*(S*)]]-2-hydroxy-3-[[-3-(1H-imidazol-4-yl)-2-[[3-(1-naphthalenyl)-2-(1-naphthalenylmethyl)-1-oxopropyl]amino]-1-oxopropyl]amino]-5-methylhexanoic acid, 1-methylethyl ester] | 140 nM
